According to patent US5874583A, “2,3-dihydro-1H-isoindole derivatives” (Hoechst Marion Roussel Inc., priority 1997, dated 1999):
Structures can show the parent of a compound that is named as a salt.

Test system: serotonin (5-hydroxytryptamine (5HT)) uptake
Experiment: [3H]-Serotonin uptake in rat whole brain and hypothalamic synaptosomes
Format: biochemical
Details: [3H]-5HT 50 nM, 37° C., 5 minutes
Protocol: [^3 H]-Serotonin Uptake in Rat Whole Brain and Hypothalamic Synaptosomes
This activity is determined in an assay which measures [^3 H]-serotoninuptake in rat whole brain and hypothalamic synaptosomes. The assay described below is used as a biochemical screen for potential antidepressants which block serotonin (5-hydroxytryptamine (5HT)) uptake.
Male CR Wistar rats (100-125 g)
1. Krebs-Henseleit Bicarbonate Buffer, pH 7.4 (KHBB):
The batch is aerated for 60 minutes with 95% 02 /5% CO2, the pH is checked to insure it is at 7.4±0.1, then add bovine serum albumin (Sigma cat# A-7906) 1 mg/ml.
3. Sucrose solution: 0.32M sucrose containing 5 mM HEPES and 0.1 mM EDTA; pH to 7.3 using Tris base.
4. A 0.1 mM stock solution of serotonin creatinine SO4 is made up in 0.01N HCl. This is used to dilute the specific activity of the radiolabeled 5HT.
The final desired concentration of [^3 H]-5HT in the assay is 50 nM. The dilution factor is 0.8. The KHBB is made up to contain 62.5 nM of [^3 H]-5HT.
6. For most assays, a 0.5 mM stock solution of the test compound is made up initially in either 10 μl of glacial acetic acid, 100 μl DMSO or 10 μl of the recrystallization solvent, to which is added approximately 10 ml of distilled water. Compounds are initially screened in duplicate at 3 concentrations (10^-8, 10^-7 and 10^-6 M) made up in water.
The Percoll method for preparing synaptosomes has been modified from Nagy, A., Delgado-Escueta, A. V. J. Neurochem. 43, 1114 (1984) and Dunkley, P. R., Jarvie, R. E., Heath, J. W., Kidd, G. J., Rostas, J. A. P. Brain Research 372, 115 (1986). Male Wistar rats are decapitated and the brain rapidly removed. Whole brain (minus cerebellum) is weighed and homogenized in 15 volumes of ice cold Sucrose solution using a Potter-Elvejhem homogenizer. The following procedures are performed on ice. Homogenization should be done with 4-5 up and down strokes at medium speeds (setting 4.5 to 5) to minimize synaptosome lysis. The homogenate is centrifuged at 1000 g (3000 rpm, Sorvall SS-34 rotor) for 10 minutes at 0°-4° C.
The Percoll gradient tubes are carefully placed into a Beckman SW-28 swinging bucket rotor and spun in a Beckman XL90 ultracentrifuge using the following program: speed, 11,000 rpm (15,000 g) for 30 minutes at 4° C.; slow acceleration and deceleration (acceleration setting 9; deceleration setting 3). Tubes are carefully removed, and the top layer and the top part of the middle (red) layer are discarded using a pasteur pipette. The synaptosomes are located in the white fluffy band at the interface between the 10% and 21% Percoll layers. This is carefully removed, placed in a centrifuge tube, diluted with KHBB and spun at 21,000 g (13,000 rpm, Sorvall SS-34 rotor). The pellet (synaptosomes) is resuspended in KHBB (10 vol per gram original brain wet weight; 1 brain minus cerebellum weighs approximately 1.2 g; 2.5 brains are needed per typical assay).
200 μl of the tissue suspension are added to each of 24 tubes (at a time) containing the 20 μl of vehicle or drug on ice. Three minutes later, 800 μl of KHBB containing [^3 H]-5HT are added, and the tubes are vortexed. The rack containing the 24 tubes is moved from the ice bath to a water bath set at 37° C. The tubes are incubated for 5 minutes under 95% O2 /5% CO2.

Going from `CCC1c2ccccc2CN1c1ccncc1` (centres unmarked) [2,3-Dihydro-1-Ethyl-2-(4-Pyridyl)-1H-Isoindole Maleate] to `CCCC1c2ccccc2CN1c1ccncc1` (centres unmarked) [2,3-Dihydro-1-Propyl-2-(4-Pyridyl)-1H-Isoindole Maleate], the IC50 falls from 1.14 µM to 0.725 µM (1.6-fold).

`CC1c2ccccc2CN1c1ccncc1` (centres unmarked) [2,3-Dihydro-1-Methyl-2-(4-Pyridyl)-1H-Isoindole Fumarate] and `CC(C)CC1c2ccccc2CN1c1ccncc1` (centres unmarked) [2,3-dihydro-1-(2-methylpropyl)-2-(4-pyridyl)-1H-isoindole maleate] are within 1.5-fold of each other in IC50: 0.736 µM for the first, 0.849 µM for the second.

For `c1ccc2c(c1)CN(c1ccncc1)C2` [2,3-Dihydro-2-(4-Pyridyl)-1H-Isoindole Maleate], the IC50 was 0.88 µM.
